{
  "source": "patent US8858988B2",
  "about": "“Compositions comprising extracts of Boswellia, tea tree, aloe and lavender oil and methods of treating wounds, burns and skin injuries therewith” (CuraPhyte Technologies Inc., priority 2009, dated 2014)",
  "system": "mouse cutaneous injury model",
  "test": "Wound healing in mouse cutaneous injury model",
  "format": "in vivo",
  "conditions": "TOP",
  "method": "Animal model: Groups of 8 ICR male mice weighing 22±2 g were used. Under ether anesthesia, the shoulder and back region of each animal was shaved. A sharp punch (ID 12 mm) was used to remove the skin including panniculus carnosus and adherent tissues. The wound area, traced onto clear plastic sheets on days 3, 5, 7, 9 and 11, were quantitated by use of an Image Analyzer (Life Science Resources VISTA, Version 30). Test compound and vehicle (20 μl, 1.5% carboxymethylcellulose in PBS) were applied topically immediately following injury and in single, two or three applications daily thereafter for a total of 10 consecutive days. The wound half-closure time (CT50) was determined and unpaired Student's t test was applied for comparison between treated and vehicle group at each measurement time point. Differences are considered statistical significance at P<0.05. CGS-21680 ((2-p-carboxyethyl)phenylamino-5′-N-carboxamidoadenosine) was used as a positive comparator. Test substance C-T-1001 (Ointment A: herbal active ingredients tea tree oil, boswellia resin, aloe vera gel and lavender oil) was evaluated for possible wound healing activity. The test substance was applied topically to the wound area once, twice, or three times daily for 10 consecutive days. Percent closure of the wound (%) was determined on days 3, 5, 7, 9 and 11 in order to generate the half closure time (CT50). One-way ANOVA followed by Dunnett's test was used to determine significant difference between the treated groups and vehicle control.",
  "note": "Marks after values point to notes of the source that are not given here.",
  "data": [
    {"compound": "CCNC(=O)[C@H]1O[C@@H](n2cnc3c(N)nc(NCCc4ccc(CCC(=O)O)cc4)nc32)[C@H](O)[C@@H]1O", "note": "[CGS-21680]", "values": [
      {"measurement": "The Closure of Wound (%) Day 3", "setting": "10 μg/mouse × 10, Day 3, mean (X)", "result": "42.4* %"},
      {"measurement": "The Closure of Wound (%) Day 5", "setting": "10 μg/mouse × 10, Day 5, mean (X)", "result": "56.3* %"},
      {"measurement": "The Closure of Wound (%) Day 7", "setting": "10 μg/mouse × 10, Day 7, mean (X)", "result": "66.8* %"},
      {"measurement": "The Closure of Wound (%) Day 9", "setting": "10 μg/mouse × 10, Day 9, mean (X)", "result": "74.3* %"},
      {"measurement": "The Closure of Wound (%) Day 11", "setting": "10 μg/mouse × 10, Day 11, mean (X)", "result": "81.7* %"},
      {"measurement": "CT50 (Days), wound half-closure time", "setting": "10 μg/mouse × 10, mean (X)", "result": "5.5* Days"}
    ]}
  ]
}
